{"source": "patent US20260274904A1", "about": "“ANTIMICROBIAL NCR2 PEPTIDES” (Donald Danforth Plant Science Center, priority 2019, published 2026)", "key": {"[1]": {"experiment": "Protein-phospholipid overlay assay (PIP Strips)", "conditions": "protein-lipid overlay, 1 μg/ml peptide, 100 pmol lipid per spot", "description": "(§2) Briefly, lipid strips were blocked with 10 mL of blocking buffer, PBS-T/3% fat free BSA for 12-16 h at 4° C. with gentle agitation. […] After hybridization, protein solution was discarded and the strips were then washed with PBS-T three times with gentle agitation for 20 minutes each for 1 hour at room temperature. […] The lipid strips were washed with PBS-T two times with gentle agitation, for 15 minutes each wash, at room temperature. HRP-conjugated Mouse Anti-Rabbit IgG secondary antibody (GenScript Cat no A01827) diluted 1:4000 in blocking buffer was added to the lipid strips and incubated for 60 minutes at 4° C. After two washes with PBS-T, chemiluminescence was detected using SuperSignal® West Pico PLUS Sensitivity substrate kit (Thermo Scientific, Cat no: 34080 following the manufacturer's protocol."}, "F. virguliforme [2]": {"tested_on": "F. virguliforme", "experiment": "Resazurin cell viability assay", "type": "cell-based, Fusarium virguliforme", "experimental": "(§1) The antifungal and anti-oomycete activity was conducted as described previously (Spelbrink et al. 2004; Sagaram et al. 2011; Velivelli et al. 2018) with minor modifications. The antifungal and anti-oomycete activity of NCR peptides were determined in an in vitro assay using 96-well microtiter plates. Fifty microliters of each protein dilution (0, 0.1, 0.3, 0.7, 1.5, 3 and 6 μM) was added to each well of the microtiter plate containing 50 μL of (zoo)spore suspension prepared in 2×SFM at a final concentration of 10^5 (zoo)spores/ml. The plates were incubated at room temperature and the quantitative fungal growth inhibition was estimated by measuring the absorbance at 595 nm using a Tecan Infinite M200 Pro (Tecan Systems Inc., San Jose, CA) microplate reader at 48 hours. The fungal/oomycete cell viability/cell killing was determined by the resazurin cell viability assay. After incubation at 48 hours, 10 μl of 0.1% resazurin solution was added to each well and re-incubated overnight. A change from blue to pink color indicates reduction of resazurin and cell viability."}, "[3]": {"tested_on": "Phytophthora capsici LT263", "conditions": "48 h"}, "[4]": {"experiment": "Protein-phospholipid overlay assay (PIP Strips)", "conditions": "protein-lipid overlay, 1 μg/ml peptide, 100 pmol lipid per spot", "remark": "listed apart in the source", "description": "as §2"}, "[5]": {"experiment": "Protein-phospholipid overlay assay (PIP Strips)", "conditions": "protein-lipid overlay, 1 μg/ml peptide, 100 pmol lipid per spot", "remark": "listed apart in the source", "description": "as §2"}, "[6]": {"experiment": "Protein-phospholipid overlay assay (PIP Strips)", "conditions": "protein-lipid overlay, 1 μg/ml peptide, 100 pmol lipid per spot", "remark": "listed apart in the source", "description": "as §2"}, "P. capsici": {"tested_on": "P. capsici", "experiment": "Resazurin cell viability assay", "type": "cell-based, Phytophthora capsici"}, "[7]": {"experiment": "Protein-phospholipid overlay assay (PIP Strips)", "conditions": "protein-lipid overlay, 1 μg/ml peptide, 100 pmol lipid per spot", "remark": "listed apart in the source", "description": "as §2"}, "[8]": {"tested_on": "Fusarium graminearum PH-1", "type": "cell-based", "conditions": "F. graminearum, absorbance at 595 nm at 48 hours"}, "Botrytis cinerea [9]": {"tested_on": "Botrytis cinerea", "conditions": "48 h"}, "[10]": {"experiment": "Protein-phospholipid overlay assay (PIP Strips)", "conditions": "protein-lipid overlay, 1 μg/ml peptide, 100 pmol lipid per spot", "remark": "listed apart in the source", "description": "as §2"}, "Botrytis cinerea [11]": {"tested_on": "Botrytis cinerea", "experiment": "Detached lettuce leaf infection assay (in planta antifungal activity)", "type": "in vivo", "conditions": "detached iceberg lettuce leaves, peptide 3, 6, and 12 μM drop inoculated, 48 hours"}, "[12]": {"experiment": "Protein-phospholipid overlay assay (PIP Strips)", "conditions": "protein-lipid overlay, 1 μg/ml peptide, 100 pmol lipid per spot", "remark": "listed apart in the source", "description": "as §2"}, "F. oxysporum [13]": {"tested_on": "F. oxysporum", "conditions": "48 h"}, "F. graminearum": {"tested_on": "F. graminearum", "type": "cell-based, Fusarium graminearum"}, "F. oxysporum [14]": {"tested_on": "F. oxysporum", "experiment": "Resazurin cell viability assay", "type": "cell-based, Fusarium oxysporum", "experimental": "as §1"}, "[15]": {"experiment": "Protein-phospholipid overlay assay (PIP Strips)", "conditions": "protein-lipid overlay, 1 μg/ml peptide, 100 pmol lipid per spot", "remark": "listed apart in the source", "description": "as §2"}, "[16]": {"experiment": "Protein-phospholipid overlay assay (PIP Strips), overall", "conditions": "protein-lipid overlay, 1 μg/ml peptide, 100 pmol lipid per spot", "description": "as §2"}, "F. virguliforme [17]": {"tested_on": "F. virguliforme", "conditions": "48 h"}}, "note": "Where a SMILES comes first, the peptide text is derived from it.", "data": [{"smiles": "CC[C@H](C)[C@H](NC(=O)[C@H](CCCNC(=N)N)NC(=O)[C@H](CCCNC(=N)N)NC(=O)[C@H](CCCNC(=N)N)NC(=O)[C@@H](NC(=O)[C@H](CS)NC(=O)[C@H](Cc1ccc(O)cc1)NC(=O)CNC(=O)[C@H](CCCCN)NC(=O)[C@H](CCCNC(=N)N)NC(=O)[C@H](CS)NC(=O)[C@H](CCCNC(=N)N)NC(=O)[C@H](C)NC(=O)[C@H](CCCNC(=N)N)NC(=O)[C@H](Cc1ccc(O)cc1)NC(=O)[C@H](CC(N)=O)NC(=O)[C@H](CCCCN)NC(=O)[C@@H](NC(=O)[C@@H](NC(=O)[C@H](CO)NC(=O)[C@H](CS)NC(=O)[C@H](CCC(=O)O)NC(=O)[C@H](CCCCN)NC(=O)[C@H](CC(=O)O)NC(=O)[C@H](CO)NC(=O)[C@@H](NC(=O)[C@H](CS)NC(=O)[C@@H]1CCCN1C(=O)[C@H](CCCCN)NC(=O)[C@H](CO)NC(=O)[C@H](CC(C)C)NC(=O)[C@H](CCC(N)=O)NC(=O)[C@@H](NC(=O)[C@H](Cc1ccccc1)NC(=O)[C@H](C)N)[C@@H](C)CC)[C@@H](C)CC)[C@@H](C)CC)C(C)C)C(C)C)C(=O)N[C@@H](CCCNC(=N)N)C(=O)O", "note": "[NCR2] (H-AFIQLSKPCISDKECSIVKNYRARCRKGYCVRRRIR-OH; N-terminus and C-terminus assumed)", "values": [{"measurement": "binding to PI(3,4)P2", "setting": "[1]", "result": "bound weakly"}, {"measurement": "concentration at which cells were killed (resazurin assay)", "setting": "F. virguliforme [2]", "result": 3, "unit": "µM"}, {"measurement": "IC50", "setting": "[3]", "result": 2000, "unit": "nM"}, {"measurement": "MIC", "setting": "[3]", "result": 3, "unit": "µM"}, {"measurement": "binding to PI(3,5)P2", "setting": "[4]", "result": "strongly binds"}, {"measurement": "binding to phosphatidic acid (PA)", "setting": "[5]", "result": "bound weakly"}, {"measurement": "binding to PI(3)P", "setting": "[6]", "result": "bound weakly"}, {"measurement": "concentration of cell death (resazurin assay)", "setting": "P. capsici", "result": 3, "unit": "µM"}, {"measurement": "binding to PI(4,5)P2", "setting": "[7]", "result": "bound weakly"}, {"measurement": "IC50", "setting": "[8]", "result": "1500 to 2000", "unit": "nM"}, {"measurement": "IC50", "setting": "Botrytis cinerea [9]", "result": 1500, "unit": "nM"}, {"measurement": "MIC", "setting": "Botrytis cinerea [9]", "result": "2 to 3", "unit": "µM"}, {"measurement": "binding to PI(3,4,5)P3", "setting": "[10]", "result": "bound weakly"}, {"measurement": "size of disease lesions caused by Botrytis cinerea", "setting": "Botrytis cinerea [11]", "result": "smaller lesions compared to no peptide control"}, {"measurement": "binding to PI(4)P", "setting": "[12]", "result": "bound weakly"}, {"measurement": "IC50", "setting": "F. oxysporum [13]", "result": 500, "unit": "nM"}, {"measurement": "concentration at which cells were killed (resazurin assay)", "setting": "F. graminearum", "result": 3, "unit": "µM"}, {"measurement": "concentration at which cells were killed (resazurin assay)", "setting": "F. oxysporum [14]", "result": 1.5, "unit": "µM"}, {"measurement": "binding to PI(5)P", "setting": "[15]", "result": "bound weakly"}, {"measurement": "binding to phospholipids (overall)", "setting": "[16]", "result": "bind to multiple phospholipids"}, {"measurement": "MIC", "setting": "F. virguliforme [17]", "result": 3, "unit": "µM"}]}]}
